Test results reported in patent publication US20250270200A1, “CTPS1 INHIBITORS AND USES THEREOF” (Nimbus Clotho, Inc., priority 2022, published 2025).
Where a name gives a salt, the structure may show the parent alone.

Target: T1, human CTPS1 (Homo sapiens, UniProt P17812)
T1 sequence (P17812 1-591): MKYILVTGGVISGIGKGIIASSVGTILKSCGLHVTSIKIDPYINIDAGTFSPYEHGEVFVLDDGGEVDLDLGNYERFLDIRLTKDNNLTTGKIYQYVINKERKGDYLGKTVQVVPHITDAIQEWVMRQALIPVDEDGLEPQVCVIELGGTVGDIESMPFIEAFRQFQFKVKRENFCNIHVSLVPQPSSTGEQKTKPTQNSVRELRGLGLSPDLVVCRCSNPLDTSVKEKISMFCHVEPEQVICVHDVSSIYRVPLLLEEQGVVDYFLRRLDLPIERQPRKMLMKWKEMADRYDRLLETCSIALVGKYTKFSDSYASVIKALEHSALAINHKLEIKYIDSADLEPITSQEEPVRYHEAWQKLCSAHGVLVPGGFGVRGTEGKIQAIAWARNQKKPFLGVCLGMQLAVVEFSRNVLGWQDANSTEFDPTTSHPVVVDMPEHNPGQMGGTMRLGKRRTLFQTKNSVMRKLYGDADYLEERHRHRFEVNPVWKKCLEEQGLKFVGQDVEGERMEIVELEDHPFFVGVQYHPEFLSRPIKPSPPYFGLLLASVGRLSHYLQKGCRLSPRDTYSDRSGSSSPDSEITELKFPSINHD
Test: ADP-Glo assay, human CTPS1 enzyme inhibition
Type: biochemical
Conditions: wild-type human CTPS1, 25 nM enzyme; ADP-Glo; read-out: ADP-Glo_WT_hCTPS1—25 nM_IC50 (IC50)
Method in brief: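 Full-length tagged human CTPS1 (25 nM) pre-incubated 10 min at 25° C with compound, then 10 min with ATP (120 μM) and UTP (160 μM); reaction started with L-glutamine (100 μM) and GTP (60 μM), 1% DMSO, in HEPES pH 7.4, 10 mM Mg2+, 5 mM KCl, 2 mM DTT. Run within linear phase at 25° C; ADP measured by ADP-Glo luminescence.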

Compound	IC50 [nM]
CCOc1cncc(-c2cnc(C(=O)N[C@@H](CN3C[C@H]4C[C@@H]3CO4)c3cncc(NS(=O)(=O)C4CC4)n3)s2)n1 [I-252, N-((S)-2-((1R,4R)-2-oxa-5-azabicyclo[2.2.1]heptan-5-yl)-1-(6-(cyclopropanesulfonamido)pyrazin-2-yl)ethyl)-5-(6-ethoxypyrazin-2-yl)thiazole-2-carboxamide, formic acid salt]	25 to 50
CCOc1cncc(-c2cnc(C(=O)N[C@H](CN3C[C@H]4C[C@@H]3CO4)c3cncc(NS(=O)(=O)C4CC4)n3)s2)n1 [I-253, N-((R)-2-((1R,4R)-2-oxa-5-azabicyclo[2.2.1]heptan-5-yl)-1-(6-(cyclopropanesulfonamido)pyrazin-2-yl)ethyl)-5-(6-ethoxypyrazin-2-yl)thiazole-2-carboxamide, formic acid salt]	50 to 100
CCOc1cncc(-c2cnc(C(=O)N[C@@H](CO)c3cc(NS(=O)(=O)C4CC4)ccn3)s2)n1 [I-262, (R)-N-(1-(4-(cyclopropanesulfonamido)pyridin-2-yl)-2-hydroxyethyl)-5-(6-ethoxypyrazin-2-yl)thiazole-2-carboxamide]	25 to 50
CCOc1cncc(-c2cnc(C(=O)N[C@H](CO)c3cc(NS(=O)(=O)C4CC4)ccn3)s2)n1 [I-263, (S)-N-(1-(4-(cyclopropanesulfonamido)pyridin-2-yl)-2-hydroxyethyl)-5-(6-ethoxypyrazin-2-yl)thiazole-2-carboxamide]	5 to 25
CCOc1cncc(-c2cnc(C(=O)N[C@H](c3cc(NS(=O)(=O)C4CC4)ccn3)[C@@H](C)O)s2)n1 [I-264, N-((1R,2R)-1-(4-(cyclopropanesulfonamido)pyridin-2-yl)-2-hydroxypropyl)-5-(6-ethoxypyrazin-2-yl)thiazole-2-carboxamide]	5 to 25
CCOc1cncc(-c2cnc(C(=O)N[C@@H](c3cc(NS(=O)(=O)C4CC4)ccn3)[C@@H](C)O)s2)n1 [I-265, N-((1S,2R)-1-(4-(cyclopropanesulfonamido)pyridin-2-yl)-2-hydroxypropyl)-5-(6-ethoxypyrazin-2-yl)thiazole-2-carboxamide]	5 to 25
CCOc1cncc(-c2cnc(C(=O)N[C@H](c3cc(NS(=O)(=O)C4CC4)ccn3)[C@H](C)O)s2)n1 [I-266, N-((1R,2S)-1-(4-(cyclopropanesulfonamido)pyridin-2-yl)-2-hydroxypropyl)-5-(6-ethoxypyrazin-2-yl)thiazole-2-carboxamide]	5 to 25
CCOc1cncc(-c2cnc(C(=O)N[C@H](c3cc(NS(=O)(=O)C4CC4)ccn3)[C@@H](C)O)s2)n1 [I-267, N-((1R,2R)-1-(4-(cyclopropanesulfonamido)pyridin-2-yl)-2-hydroxypropyl)-5-(6-ethoxypyrazin-2-yl)thiazole-2-carboxamide]	5 to 25
CCOc1cncc(-c2cnc(C(=O)N[C@@H](c3cc(NS(=O)(=O)C4CC4)ccn3)[C@@H](C)O)s2)n1 [I-269, N-((1S,2R)-1-(4-(cyclopropanesulfonamido)pyridin-2-yl)-2-hydroxypropyl)-5-(6-ethoxypyrazin-2-yl)thiazole-2-carboxamide]	≤ 5
CCOc1cncc(-c2cnc(C(=O)N[C@@H](c3cc(NS(=O)(=O)C4CC4)ccn3)C(C)(C)O)s2)n1 [I-275, (S)-N-(1-(4-(cyclopropanesulfonamido)pyridin-2-yl)-2-hydroxy-2-methylpropyl)-5-(6-ethoxypyrazin-2-yl)thiazole-2-carboxamide]	25 to 50
CCOc1cncc(-c2cnc(C(=O)N[C@H](c3cc(NS(=O)(=O)C4CC4)ccn3)C(C)(C)O)s2)n1 [I-276, (R)-N-(1-(4-(cyclopropanesulfonamido)pyridin-2-yl)-2-hydroxy-2-methylpropyl)-5-(6-ethoxypyrazin-2-yl)thiazole-2-carboxamide]	5 to 25
CCOc1cncc(-c2ccc(C(=O)N[C@@H](COC)c3cc(NS(=O)(=O)C4CC4)ccn3)cc2)n1 [I-279, (R)-N-(1-(4-(cyclopropanesulfonamido)pyridin-2-yl)-2-methoxyethyl)-4-(6-ethoxypyrazin-2-yl)benzamide]	5 to 25

Results, then the compound that gave them:

IC50 [nM]	Compound
5 to 25	CCOc1cncc(-c2cnc(C(=O)N[C@H](c3cc(NS(=O)(=O)C4CC4)ncn3)[C@@H]3CCOC3)s2)n1 [I-256, N-((S)-(6-(cyclopropanesulfonamido)pyrimidin-4-yl)((S)-tetrahydrofuran-3-yl)methyl)-5-(6-ethoxypyrazin-2-yl)thiazole-2-carboxamide]
5 to 25	CCOc1cncc(-c2cnc(C(=O)N[C@@H](c3cc(NS(=O)(=O)C4CC4)ncn3)[C@@H]3CCOC3)s2)n1 [I-257, N-((R)-(6-(cyclopropanesulfonamido)pyrimidin-4-yl)((S)-tetrahydrofuran-3-yl)methyl)-5-(6-ethoxypyrazin-2-yl)thiazole-2-carboxamide]
5 to 25	CCOc1cncc(-c2cnc(C(=O)N[C@@H](c3cc(NS(=O)(=O)C4CC4)ncn3)[C@H]3CCOC3)s2)n1 [I-258, N-((R)-(6-(cyclopropanesulfonamido)pyrimidin-4-yl)((R)-tetrahydrofuran-3-yl)methyl)-5-(6-ethoxypyrazin-2-yl)thiazole-2-carboxamide]
5 to 25	CCOc1cncc(-c2cnc(C(=O)N[C@H](c3cc(NS(=O)(=O)C4CC4)ncn3)[C@H]3CCOC3)s2)n1 [I-259, N-((S)-(6-(cyclopropanesulfonamido)pyrimidin-4-yl)((R)-tetrahydrofuran-3-yl)methyl)-5-(6-ethoxypyrazin-2-yl)thiazole-2-carboxamide]
5 to 25	O=C(N[C@H](c1ccnc(NS(=O)(=O)C2CC2)n1)[C@H]1CCOC1)c1ncc(-c2cnn3ccc(Cl)cc23)s1 [I-260, 5-(5-chloropyrazolo[1,5-a]pyridin-3-yl)-N-((S)-(2-(cyclopropanesulfonamido)pyrimidin-4-yl)((R)-tetrahydrofuran-3-yl)methyl)thiazole-2-carboxamide]
5 to 25	O=C(N[C@H](c1ccnc(NS(=O)(=O)C2CC2)n1)[C@@H]1CCOC1)c1ncc(-c2cnn3ccc(Cl)cc23)s1 [I-261, 5-(5-chloropyrazolo[1,5-a]pyridin-3-yl)-N-((S)-(2-(cyclopropanesulfonamido)pyrimidin-4-yl)((S)-tetrahydrofuran-3-yl)methyl)thiazole-2-carboxamide]
25 to 50	CCOc1cncc(-c2cnc(C(=O)N[C@H](COC)c3ccnc(NS(=O)(=O)C4CC4)n3)s2)n1 [I-268, (S)-N-(1-(2-(cyclopropanesulfonamido)pyrimidin-4-yl)-2-methoxyethyl)-5-(6-ethoxypyrazin-2-yl)thiazole-2-carboxamide]
≤ 5	CCOc1cncc(-c2cnc(C(=O)N[C@@H](c3cc(NS(=O)(=O)C4CC4)ccn3)[C@H](C)O)s2)n1 [I-270, N-((1S,2S)-1-(4-(cyclopropanesulfonamido)pyridin-2-yl)-2-hydroxypropyl)-5-(6-ethoxypyrazin-2-yl)thiazole-2-carboxamide]
5 to 25	C[C@@H](O)[C@H](NC(=O)c1ncc(-c2cnn3ccc(Cl)cc23)s1)c1cc(NS(=O)(=O)C2CC2)ccn1 [I-271, 5-(5-chloropyrazolo[1,5-a]pyridin-3-yl)-N-((1R,2R)-1-(4-(cyclopropanesulfonamido)pyridin-2-yl)-2-hydroxypropyl)thiazole-2-carboxamide]
5 to 25	C[C@H](O)[C@H](NC(=O)c1ncc(-c2cnn3ccc(Cl)cc23)s1)c1cc(NS(=O)(=O)C2CC2)ccn1 [I-272, 5-(5-chloropyrazolo[1,5-a]pyridin-3-yl)-N-((1R,2S)-1-(4-(cyclopropanesulfonamido)pyridin-2-yl)-2-hydroxypropyl)thiazole-2-carboxamide]
5 to 25	C[C@H](O)[C@@H](NC(=O)c1ncc(-c2cnn3ccc(Cl)cc23)s1)c1cc(NS(=O)(=O)C2CC2)ccn1 [I-273, 5-(5-chloropyrazolo[1,5-a]pyridin-3-yl)-N-((1S,2S)-1-(4-(cyclopropanesulfonamido)pyridin-2-yl)-2-hydroxypropyl)thiazole-2-carboxamide]
5 to 25	C[C@@H](O)[C@@H](NC(=O)c1ncc(-c2cnn3ccc(Cl)cc23)s1)c1cc(NS(=O)(=O)C2CC2)ccn1 [I-274, 5-(5-chloropyrazolo[1,5-a]pyridin-3-yl)-N-((1S,2R)-1-(4-(cyclopropanesulfonamido)pyridin-2-yl)-2-hydroxypropyl)thiazole-2-carboxamide]
50 to 100	CC(C)(O)[C@H](NC(=O)c1ncc(-c2cnn3ccc(Cl)cc23)s1)c1cc(NS(=O)(=O)C2CC2)ccn1 [I-277, (R)-5-(5-chloropyrazolo[1,5-a]pyridin-3-yl)-N-(1-(4-(cyclopropanesulfonamido)pyridin-2-yl)-2-hydroxy-2-methylpropyl)thiazole-2-carboxamide]
50 to 100	CC(C)(O)[C@@H](NC(=O)c1ncc(-c2cnn3ccc(Cl)cc23)s1)c1cc(NS(=O)(=O)C2CC2)ccn1 [I-278, (S)-5-(5-chloropyrazolo[1,5-a]pyridin-3-yl)-N-(1-(4-(cyclopropanesulfonamido)pyridin-2-yl)-2-hydroxy-2-methylpropyl)thiazole-2-carboxamide]
